In patent US9486447B2, “Compositions and methods for controlling neuronal excitation” (The General Hospital Corporation, priority 2011, dated 2016):
“Also recorded” adds a separate entry of the source.

Key:
zebrafish embryos = test: Zebrafish behavioral assay (light-dependent motor excitation, excitation score); type: in vivo; conditions: for behavioral excitation (activity of optovin analogs) / light-dependent motor excitation in vivo: 10 μM; for behavioral excitation (activity of optovin analogs): n=5, FIG. 2A; for light-dependent motor excitation in vivo: n=3, FIG. 4H
Protocol: To identify small molecules for the optical control of endogenous channels, a screen was conducted for compounds that could drive light-dependent motor behaviors in wild-type zebrafish. Zebrafish embryos are particularly well suited for phenotype based chemical screens^28,29. They are blind for the first 3 days of development and other than a one-time motor response to the first light exposure in dark-adapted animals (the photomotor response, PMR), zebrafish embryos are unresponsive to light^31,30 (FIG. 1A). A library of 10,000 structurally diverse synthetic small molecules was screened for compounds that render zebrafish embryos responsive to light. Behavioral responses were measured for each well in comparison to a set of 2,500 DMSO treated controls. This screen identified a single compound, optovin, that increased motor activity greater than 40 standard deviations above the control mean (FIGS. 1A-1C).
A large number of fertilized eggs (up to 5,000 embryos per day) were collected from group mating of Ekkwill or TuAB zebrafish. Embryos were raised in HEPES (10 mM) buffered E3 media in a dark incubator at 28° C. until […]. Groups of ˜8 embryos (28 hpf) were distributed into the wells of flat bottom black-walled 96 well plates filled with E3 media (360 μl). Embryos were then incubated in a dark incubator 25° C. for chemical treatment and subsequent experiments.
The Tim Tec ACTIPROBEβ library contains 10,000 compounds dissolved in DMSO at a stock concentration of 1 mg/ml (˜3 mM). The Tim Tec library was screened at a 1:300 dilution in E3 buffer for a final concentration of ˜10 μM. Negative controls were treated with an equal volume of DMSO. Stock solutions were added directly to zebrafish in the wells of a 96 well plate, mixed, and allowed to incubate for 2-10 hours in the dark prior to behavioral evaluation in the PMR assay. The Tim Tec library (10,000 compounds) was purchased from the Tim Tec corporation (Newark, Del.). The Neurotransmitter Library (700 compounds; cat #2810) was purchased from Biomol International. Reordered hit compounds were dissolved in DMSO and added to wells as described above.
Animals were exposed to a two pulse stimulus train with a 10 s inter-stimulus interval. Exposure to the first pulse was used to trigger the photomotor response, which has a refractory phase of approximately 10 minutes. […] In a typical assay, 1000 frames of digital video were recorded at 33 fps using a Hamamatsu ORCA-ER camera mounted on a Nikon TE200 microscope with a 1× objective. Instrument control and data measurement were performed using custom scripts for Metamorph Software (Molecular Devices). Each video was saved for review. Light stimuli were generated with a 300-watt xenon bulb housed in a Sutter Lambda LS illuminator and delivered to the well 10 s and 20 s after the start of each video. A cold mirror (reflectance between 300 nm and 700 nm) on the Sutter illuminator was used to block wavelengths outside of this range. Light intensity was measured using a PM100D power meter attached to a S120VC photodiode power sensor (Thorlabs). Where indicated, filters were used to restrict the excitation light to the indicated wavelengths.
To analyze digital video recordings, custom software scripts were used to automatically draw six evenly spaced line segments across each well such that each embryo is likely to be crossed by one of the lines. The software then tracks the average intensity of the pixels for each segment over time. As the embryos move, the light intensity at some of the pixels changes. The motion index was calculated by taking the total absolute difference in pixel intensity between frames. This motion index correlates with the overall amount of motion in the well, both in terms of contraction frequency and number of animals in motion. Behavioral features are quantified by ‘excitation scores’ that are calculated by taking the 75th percentile of the motion index for 3-5 s following the light stimulus. […]

[1] = test system: dorsal root ganglia (DRG) sensory neurons; test: Calcium imaging of DRG sensory neurons; type: cell-based, mouse; conditions: 100 μM mustard oil
Protocol: To determine if optovin acts on sensory neurons, the activity of treated and untreated dorsal root ganglia (DRG) sensory neurons isolated from wild type mice were compared. […] TRPA1 channels play important roles in detecting chemical, thermal, and mechanical stimuli in a variety of organisms^34,35.
C57Bl/6 male mice (3-4 weeks old) were decapitated and DRG were dissected into 4° C. Hank's Balanced Salt Solution (HBSS; Gibco), then neurons were dissociated using collagenase (1 mg/mL; Worthington) and dispase (5 mg/mL; Gibco) dissolved in HBSS. Neurons were plated in Neurobasal-A medium (Invitrogen), supplemented with B-27 Supplement (Gibco), L-glutamine (Gibco), and penicillin-streptomycin (Gibco). The neurons were plated onto coverslips coated with 0.1 mg/mL poly-D-lysine (Sigma) and 5 μg/mL laminin (Sigma). After 24 h, neurons were washed with assay buffer (HBSS, supplemented with 9 mM HEPES, 11 mM D-glucose, 0.1% fatty-acid free BSA, pH 7.3) and incubated for 1 h with 2 μM Fura2-AM (Invitrogen) with 0.2% pluronic (Invitrogen) in assay buffer in the dark at room temperature. The neurons were then washed with assay buffer and allowed to equilibrate at room temperature for 30 min prior to imaging. After a 120 s baseline perfusion of assay buffer containing 3.3% DMSO, 100 μM optovin dissolved in the DMSO-assay buffer solution, or the DMSO-assay buffer solution alone as a control, was perfused onto the neurons for a period of 1 min. Fura-2 is activated with UV-light, and the process of imaging Fura-2 was enough to activate the optovin. […] Following this one-minute period, cells were perfused with DMSO-assay buffer to remove the agonist, which was followed by addition of 100 μM mustard oil (in DMSO-assay buffer) to determine the total number of TrpA1-expressing neurons present. Images were acquired on a Nikon Eclipse Ti microscope (Nikon, Melville, N.Y.).

Compound | behavioral excitation (activity of optovin analogs) (zebrafish embryos) | other results
Cc1cc(/C=C2/SC(=S)NC2=O)c(C)n1-c1ccccc1 [6b8] | bioactive; also recorded: active | –
Cc1cc(/C=C2/SC(=S)NC2=O)c(C)n1C [6c1] | bioactive; also recorded: active | lowest effective dose (zebrafish embryos; zebrafish, in vivo): 300 nM; lowest effective dose, fold lower than optovin (zebrafish embryos; zebrafish, in vivo): 10 ×
Cc1cc(C=C2SC(=O)NC2=O)c(C)n1-c1cccnc1 [6c2] | abrogate the optovin response; also recorded: inactive | –
CCN1C(=O)C(=Cc2cc(C)n(-c3cccnc3)c2C)SC1=S [6c3] | abrogate the optovin response; also recorded: inactive | –
Cc1cc(/C=C2/NC(=O)NC2=O)c(C)n1-c1cccnc1 [6c4] | retains optovin activity | –
O=C1CSC(=S)N1 [6c5] | Neither analog retains activity; also recorded: inactive | –
CN(C)c1ccc(C=C2SC(=S)NC2=O)cc1 [6c7] | Neither analog retains activity; also recorded: inactive | –
COc1ccc(/C=C2/SC(=S)NC2=O)cc1O [7c7] | – | light-dependent motor excitation in vivo (zebrafish embryos): cause light-dependent motor excitation
COc1cc(C(C)=C2SC(=S)NC2=O)ccc1O [7d1] | – | light-dependent motor excitation in vivo (zebrafish embryos): does not cause light dependent motor activity
C1CN2CCN1CC2 [DABCO, 1,4-diazabicyclo[2.2.2]octane, reference compound] | – | effect on other light elicited behaviors (PMR) (zebrafish embryos; co-treatment with optovin): not affect other light elicited behaviors; suppression of the optovin response in vivo (zebrafish embryos; co-treatment with optovin): completely suppress the optovin response
C=CCN=C=S [mustard oil, reference compound] | – | response of optovin responsive DRG neurons to mustard oil [1]: responded to mustard oil
